Measurements reported in patent US20140044709A1, “TREATMENT OF HER2-POSITIVE CANCER WITH PACLITAXEL AND TRASTUZUMAB-MCC-DM1” (priority 2010, published 2014).
Where two headings read alike, the source gives them in different places.

Key:
[1] = tested on: patients with cancer; experiment: Pooled Phase II trials of single-agent pertuzumab, safety; assay type: in vivo, human
[2] = tested on: patients with cancer; experiment: Completed Phase Ib combination studies of pertuzumab, LVEF; assay type: in vivo, human; details: 2/35 patients
Source text: Grade 3-4 adverse events have been less frequently reported, with the more frequent events being Grade 3 diarrhea (5%), Grade 3 vomiting (2%), and Grade 3 nausea (<1%). Asymptomatic decreases in LVEF have been reported as adverse events in 14% of patients and were mainly (−70%) Grade 1 events.

[3] = tested on: patients with cancer; experiment: Pertuzumab across all studies, symptomatic cardiac failure; assay type: in vivo, human; details: 4 of 842 patients across all studies
Source text: Two of these patients had MBC and had received prior anthracyclines and two patients had ovarian cancer patients, one of whom had cardiac risk factors (hypertension/hyperlipidemia).

[4] = Pertuzumab PK studies (Phase Ia and II); assay type: in vivo, human
Source text: A two-compartment model adequately described the concentration-time data with a terminal half-life of approximately 17 days for a typical patient.
Population PK modeling of data from Phase Ia and II studies supports the continued use of fixed non-weight based dosing in female patients.

[5] = tested on: patients with HER2-positive MBC
Source text: Patients with confirmed HER2-positive MBC whose disease had progressed on multiple lines of therapy, including HER2-directed therapy, were eligible.
Preliminary data in 112 evaluable patients are also available from the Phase II study.

[6] = tested on: patients with HER2-positive MBC; remark: listed apart in the source
[7] = tested on: patients with MBC; details: single agent, cited from earlier work
[8] = pooled Phase II single agent (n=353), generally Grade 1-2
[9] = subgroup with at least 6 months of follow-up or discontinued (n=76)

pertuzumab: humanized monoclonal antibody that binds to extracellular domain II of HER2 and blocks its ability to dimerize with other HER receptors
asymptomatic decreases in LVEF reported as adverse events ([1]; % of patients): 14% | LVEF declines of ≧10% to <50% ([1]; completed Phase II single-agent studies, 21/302 patients): 7% | Grade 3 diarrhea ([1]; pooled Phase II single agent): 5% | Grade 3 nausea ([1]; pooled Phase II single agent): < 1% | Grade 3 vomiting ([1]; pooled Phase II single agent): 2% | abdominal pain [1, 8]: 24% | diarrhea [1, 8]: 58% | fatigue [1, 8]: 32% | nausea [1, 8]: 31% | rash [1, 8]: 17% | vomiting [1, 8]: 22% | tolerability ([1]; single agent, five Phase II studies): well tolerated | LVEF declines of ≧10% to <50% [2]: 6% | symptomatic cardiac failure events [3]: 0.5% | attaining steady-state trough and peak concentrations ([4]; loading dose 840 mg followed by 420 mg every 3 weeks): by the second cycle | terminal half-life ([4]; two-compartment model, typical patient): approximately 17 days

T-DM1
objective responses confirmed by follow-up imaging ([5]; 107 efficacy-evaluable patients, 29 responses): 27.1% | objective responses (CRs and PRs) ([5]; 107 efficacy-evaluable patients, 42 responses): 39.3% | response rate [5, 9]: 43.4% | response rate confirmed by follow-up imaging [5, 9]: 38.2% | responses ([6]; 1.2 mg/kg weekly (n=3)): three | responses ([6]; 1.6 mg/kg weekly (n=3)): two | responses ([6]; 2.0 mg/kg weekly (n=3)): two | ORR in patients with measurable disease and confirmed HER2 status by central review ([6]; every 3-week schedule, 5/11): 46% | 6-month clinical benefit rate (CR+PR+SD>6 months) ([6]; every 3-week schedule, 13/24): 54% | objective response rate (ORR) ([6]; every-3-week schedule, 24 patients): 21% | responses confirmed according to RECIST ([6]; every-3-week schedule, of six responses): five | ORR in patients with measurable disease and confirmed HER2 status by central review ([6]; weekly schedule, 7/15): 47% | 6-month clinical benefit rate (CR+PR+SD>6 months) ([6]; weekly schedule, 18/28): 64% | objective response rate (ORR) ([6]; weekly schedule, 28 patients): 54% | responses confirmed according to RECIST ([6]; weekly schedule, of 15 responses): 13

CC(=O)O[C@H]1C(=O)[C@@]2(C)[C@H]([C@H](OC(=O)c3ccccc3)[C@]3(O)C[C@H](OC(=O)[C@H](O)[C@@H](NC(=O)c4ccccc4)c4ccccc4)C(C)=C1C3(C)C)[C@]1(OC(C)=O)CO[C@@H]1C[C@@H]2O (relative stereo) [paclitaxel, β-(benzoylamino)-α-hydroxy-,6,12b-bis (acetyloxy)-12-(benzoyloxy)-2a,3,4,4a,5,6,9,10,11,12,12a,12b-dodecahydro-4,11-dihydroxy-4a,8,13,13-tetramethyl-5-oxo-7,11-methano-1H-cyclodeca(3,4)benz(1,2-b) oxet-9-ylester,(2aR-(2a-α,4-β,4a-β,6-β,9-α (α-R*,β-S*),11-α,12-α,12a-α,2b-α))-benzenepropanoic acid]
response rates ([7]; first-line treatment of MBC): 29-63% | response rates ([7]; second-line treatment of MBC): 21-56%
